The text below walks through data of patent publication US6841657B2, “Inhibitors of HIV membrane fusion” (priority 1998, dated 2005).

Positions of bridges follow the written chain, without caps; N, C: chain ends. Non-standard residues stand in square brackets, D forms with d.

The test system of assay [1] is hydrophobic pocket of IQN17 (gp41). Briefly: 1H NMR assay of binding to the IQN17 hydrophobic pocket. On the set-up: species or system HIV-1. Particulars: 1:1 complex with IQN17, 25° C., 100 mM NaCl, 50 mM sodium phosphate pH 7.5, D2O. The text has this:
NMR experiments were used to assay the binding of each D-peptide to IQN17. The single tryptophan residue of IQN17 (denoted Trp-571) provides an excellent probe of specific binding to the hydrophobic pocket of gp41. […] To test a compound for binding to the gp41 pocket, two one-dimensional ^1H NMR measurements were made on samples in deuterated buffers. First, a reference (control) spectrum of IQN17 was taken, identifying the Trp571 chemical shifts in the unbound form. A second spectrum was acquired on a sample containing both IQN17 and the compound in question. An optional third spectrum of the D-peptide (or other small molecule, or mix of molecules) was also taken. ^1H NMR experiments were performed on a Bruker AMX 500 spectrometer. Data was processed in Felix 98.0 (MSI) on Silicon Graphics computers, and all spectra were referenced to DSS. All experiments were performed at 25° C. in 100 mM NaCl, 50 mM sodium phosphate (pH 7.5). All buffers used were >99.7% D2O, to remove overlapping resonances from exchangeable backbone and side chain protons. Solute concentrations ranged from 0.3-1.0 mM for individual peptides, 0.8-1.0 mM for 1:1 commplexes of IQN17 with each D-peptide.
Simple binding of two or more components is expected to result both in broader peaks (due to the increased size of the complex) and in changes in chemical shifts (due to the different chemical environments experienced by nuclei in free and bound forms). Specific binding to the hydrophobic pocket is indicated by a change in the Trp-571 chemical shifts, as well as by a broadening of peaks. Binding can also be indicated by similar changes in the chemical shifts and peak widths of the molecule (peptides and small organic molecules, for example) assayed. […] All IQN17/D-peptide complexes studied gave similar results, though varying in the degree of chemical shift dispersion (FIG. 9B). Thus, binding was indicated in all cases.
To confirm that the strongly upfield-shifted peaks all correspond to a single sidechain (almost certainly Trp-571), two-dimensional NMR (TOCSY) experiments were performed on each of the IQN17/D-peptide complexes. As expected, the TOCSY experiments indicate that in each complex, the strongly upfield-shifted resonances all belong to the same aromatic side chain, identified as a group of four scalar-coupled protons. For several of the complexes studied, NOESY experiments also indicate contact between this sidechain and other (unassigned) aromatic groups, as expected from the IQN17/D10pep1 structure. Not all of the potential NOE crosspeaks could be resolved, due to intense spectral overlap in the 6.8-7.6 ppm region. 2D NOESY and TOCSY experiments as described in J. Cavanaugh, W. J. Fairbrother, A. G. Palmer, N. J. Skelton, Protein NMR Spectroscopy: Principles and Practice (1996) were performed on samples of IQN17 and of each complex, with mixing times ranging between 30-90 ms (NOESY) and 30-70 ms (TOCSY). Spectral widths of 11,111 Hz and 5555 Hz were used in the acquisition (t2) and indirect (t1) dimensions, respectively. TOCSY experiments employed the DIPSI-2rc mixing sequence (J. Cavanaugh, M. Rance, J. Magn. Reson. Serv. A., 105:328 (1993)).

Assay [2] has as its system recombinant luciferase-expressing HIV-1. It is filed as cell-based. The following applies: infectivity assay. The method, then: The potency of C34 peptides in inhibiting viral infection and the HIV-1 infection inhibitory activity of the D-peptides were assayed using recombinant luciferase-expressing HIV-1 (Chen, B. K. et al., J. Virol., 68:654 (1994); Malashkevich, V. N., et al., Proc. Natl. Acad. Sci., USA, 95:9134 (1998)).
The apparent melting temperatures (Tm) were estimated from the thermal dependence of the CD signal at 222 nm. Inhibition of viral entry was measured in a cell-culture infection assay using recombinant luciferase-expressing HIV-1. Inhibition of cell-cell fusion was measured in a syncytium assay. The means and standard errors are from triplicate trials.

In assay [3] the test system is syncytia formation between Chinese hamster ovary cell expressing HXB2 envelope and HeLa-CD4-LTR-Beta-gal cells. The following applies: two additional N-terminal lysines vs parent D-peptide. The method, then: In each instance, a blocking group (e.g., an acetyl group) was present at the N terminus and a CONH2 (amide) was present at the C-terminus.
Inhibition of cell/cell fusion (i.e., syncytia formation) was assayed by co-culturing Chinese hamster ovary cell expressing HXB2 envelope (K. Kozarsky, et al., J. Acquir. Immune. Defic. Syndr., 2:163 (1989) and the HeLa-CD4-LTR-Beta-gal cells (M. Emerman, NIH AIDS Reagent program) in the presence of varying concentration of peptide. When mixed, these cells form syncytia, or multi-nucleated cells, which express β-galactosidase. Approximately twenty hours after co-culturing the cells, the monolayers were stained with 5-bromo-4-chloro-3-indolyl-β-D-galactoside to visualize the syncytia. The syncytia are visualized with a microscope and counted manually (a syncytia is scored as a fused cell containing three or more nuclei). The IC50 was calculated from fitting the data to a Langmuir equation [y=k/(1+[peptide]/IC50)+x], where y=number of syncytia and k and x are scaling constants.

A further assay concerns HIV-1. Particulars: Phase I clinical trial; cited from earlier work.

In the case of “Ac-GACEARHREWAWLCAA-CONH2 (Ac-G[dA][dC][dE][dA][dR][dH][dR][dE][dW][dA][dW][dL][dC][dA][dA]-NH2; disulfide 3-14 (inferred)) [Peptide D10pep1]”, in assay [1], the “binding to the hydrophobic pocket of IQN17” value (from here on “binding”) is listed as “contact the pocket with very similar binding interfaces”. Moreover, the “inhibition of infection of cells” value in assay [2] is reported as “inhibit infection of cells”.

For the substance “Ac-GACSRSQPEWEWLCAA-CONH2 (Ac-G[dA][dC][dS][dR][dS][dQ][dP][dE][dW][dE][dW][dL][dC][dA][dA]-NH2; disulfide 3-14 (inferred)) [Peptide D10pep6]”, the “binding” value in assay [1] is “contact the pocket with very similar binding interfaces”. Consider “Ac-KKGACEARHREWAWLCAA-CONH2 (Ac-KKG[dA][dC][dE][dA][dR][dH][dR][dE][dW][dA][dW][dL][dC][dA][dA]-NH2; disulfide 5-16 (inferred); not fully specified (residues 1, 2); printed as Ac-KKGACEARHREWAWLCAA-CONH2) [Peptide D10pep1a]”, for which, in assay [1], the “binding” value was “broader peaks and dramatically different chemical shifts”. In assay [3], the “IC50 for inhibition of syncytia formation relative to parent peptide without the added lysines” value is reported as “approximately 2 fold”. For “Ac-KKGACGLGQEEWFWLCAA-CONH2 (Ac-KKG[dA][dC]G[dL]G[dQ][dE][dE][dW][dF][dW][dL][dC][dA][dA]-NH2; disulfide 5-16 (inferred); not fully specified (residues 1, 2); printed as Ac-KKGACGLGQEEWFWLCAA-CONH2) [Peptide D10pep3]”, the “binding” value in assay [1] is “contact the pocket with very similar binding interfaces”.

As to “Ac-KKGACMRGEWEWSWLCAA-CONH2 (Ac-KKG[dA][dC][dM][dR]G[dE][dW][dE][dW][dS][dW][dL][dC][dA][dA]-NH2; disulfide 5-16 (inferred); not fully specified (residues 1, 2); printed as Ac-KKGACMRGEWEWSWLCAA-CONH2) [Peptide D10pep10]”, in assay [1], the “binding” value is “contact the pocket with very similar binding interfaces”. As for “Ac-KKGACPPLNKEWAWLCAA-CONH2 (Ac-KKG[dA][dC][dP][dP][dL][dN][dK][dE][dW][dA][dW][dL][dC][dA][dA]-NH2; disulfide 5-16 (inferred); not fully specified (residues 1, 2); printed as Ac-KKGACPPLNKEWAWLCAA-CONH2) [Peptide D10pep12]”, the “binding” value in assay [1] is reported as “contact the pocket with very similar binding interfaces”. On to enfuvirtide, for which, in the assay on HIV-1, the “antiviral activity in vivo” value is reported as “reduced viral loads”.
